The subject of data set [1] is U-251. The experiment in a line: Antiproliferative activity against human U-251 cells assessed as inhibition of cell growth at 10 uM incubated for 48 hrs by SRB assay relative to control. The arrangement: scale not given: the % may be the effect or the level left. The format is functional.
Data set [2] concerns PC-3. The experiment in a line: Antiproliferative activity against human PC-3 cells assessed as inhibition of cell growth at 10 uM incubated for 48 hrs by SRB assay relative to control. It is filed as functional. The arrangement: scale not given: the % may be the effect or the level left. (In general: Sulforhodamine B stains cellular protein and so reports cell mass.)
The subject of data set [3] is K562. The experiment in a line: Antiproliferative activity against human K562 cells assessed as inhibition of cell growth at 10 uM incubated for 48 hrs by SRB assay relative to control. The format is functional. The arrangement: scale not given: the % may be the effect or the level left.
For data set [4], the system named is HCT-15. The experiment in a line: Antiproliferative activity against human HCT-15 cells assessed as inhibition of cell growth at 10 uM incubated for 48 hrs by SRB assay relative to control. It is filed as functional. Further details: scale not given: the % may be the effect or the level left.
The subject of data set [5] is SK-LU-1. The experiment in a line: Antiproliferative activity against human SK-LU-1 cells assessed as inhibition of cell growth at 10 uM incubated for 48 hrs by SRB assay relative to control. The format is functional. Further details: scale not given: the % may be the effect or the level left.
The nature of data set [6]: Antiproliferative activity against African green monkey COS-7 cells assessed as inhibition of cell growth at 10 uM incubated for 48 hrs by SRB assay relative to control. It is filed as toxicity, cell-based. Particulars: chlorocebus aethiops, read-out: Activity.
Data set [7] relates to MCF7. The experiment in a line: Antiproliferative activity against human MCF7 cells assessed as inhibition of cell growth at 10 uM incubated for 48 hrs by SRB assay relative to control. The format is functional. Further details: scale not given: the % may be the effect or the level left.

For the compound `CCCCCCCCCCCCNC(=O)C(c1cc(OC)c(OC)c(OC)c1)N1CCCCN(CC(=O)NC(C)(C)C)C(=O)c2cccc(c2)-c2cccc(c2)C1=O` (racemic), the Activity in data set [1] was 11.4%; in data set [2] it was 33.9%; in data set [3], 24%; in data set [4], 31.5%; in data set [5] it was 34.4%. In addition, the inhibition at 48 h, 10 µM in data set [6] came out at 25.6%.
Consider `CCCCCCCCCCCCNC(=O)C(c1ccc(C(F)(F)F)cc1)N1CCCCN(CC(=O)NC(C)(C)C)C(=O)c2cccc(c2)-c2cccc(c2)C1=O` (racemic), for which the Activity in data set [1] turned out to be 47.2%; in data set [2] it was 18.6%; in data set [3], 100%; in data set [4] it was 30.3%; in data set [7], 75.3%; in data set [5] it was 76.5%. Further, the inhibition at 48 h, 10 µM in data set [6] stood at 38%.
As for `CCCCCCCCCCNC(=O)CN1CCCCN(CC(=O)NC(C)(C)C)C(=O)c2cccc(c2)-c2cccc(c2)C1=O`, the Activity in data set [1] was found to be 16.1%; in data set [2], 59.9%; in data set [3] it was 38%; in data set [4], 65.5%; in data set [7], 72.1%; in data set [5] it was 50.4%. The inhibition at 48 h, 10 µM in data set [6] is 17.8%.
Turning to `CCCCCCCCNC(=O)CN1CCCCN(CC(=O)NC(C)(C)C)C(=O)c2cccc(c2)-c2cccc(c2)C1=O`, the Activity is reported as 20.5% in data set [1]; 46.5% in data set [2]; 24.4% in data set [3]; 26.7% in data set [4]; 31.7% in data set [7]; 9.6% in data set [5]. In data set [6], the inhibition at 48 h, 10 µM is 19.7%.
For `CCCCCCCCCNC(=O)CN1CCCCN(CC(=O)NC(C)(C)C)C(=O)c2cccc(c2)-c2cccc(c2)C1=O`, the Activity came out at 16% in data set [1]; 66.9% in data set [2]; 44% in data set [3]; 55.1% in data set [4]; 45.6% in data set [7]; 45.3% in data set [5]. Besides, the inhibition at 48 h, 10 µM in data set [6] came out at 52.4%.
With `CCCCCCCCCCNC(=O)C(c1ccco1)N1CCCCN(CC(=O)NC(C)(C)C)C(=O)c2cccc(c2)-c2cccc(c2)C1=O` (racemic), the Activity in data set [1] is recorded as 25.5%; in data set [2], 25.8%; in data set [3], 28%; in data set [4], 26%; in data set [7], 25.7%; in data set [5], 25.3%. Further, the inhibition at 48 h, 10 µM in data set [6] was determined as 21.6%.
Consider `CCCCCCCCCCNC(=O)C(c1ccc(F)cc1)N1CCCCN(CC(=O)NC(C)(C)C)C(=O)c2cccc(c2)-c2cccc(c2)C1=O` (racemic), for which the Activity was 19.3% in data set [1]; 15.1% in data set [2]; 64% in data set [3]; 67.2% in data set [4]; 47.3% in data set [7]; 31.8% in data set [5]. For the same compound, the inhibition at 48 h, 10 µM in data set [6] was 24.3%.
Consider `CCCCCCCCCCCCNC(=O)C(c1ccco1)N1CCCCN(CC(=O)NC(C)(C)C)C(=O)c2cccc(c2)-c2cccc(c2)C1=O` (racemic), for which the Activity in data set [1] amounted to 21.9%; in data set [2], 13.5%; in data set [3] it was 19.8%; in data set [4], 26.8%; in data set [7], 51.3%; in data set [5] it was 34.9%. Moreover, the inhibition at 48 h, 10 µM in data set [6] turned out to be 35.8%.
`CCCCCCCCCCCNC(=O)CN1CCCCN(CC(=O)NC(C)(C)C)C(=O)c2cccc(c2)-c2cccc(c2)C1=O`: the Activity in data set [1] was 10.8%; in data set [2], 44.4%; in data set [3] it was 42%; in data set [4] it was 51%; in data set [7], 5.3%; in data set [5], 23.2%. For the same compound, the inhibition at 48 h, 10 µM in data set [6] was 28.1%.
On to `CCCCCCCCCCCCNC(=O)C(c1ccc(OC)cc1)N1CCCCN(CC(=O)NC(C)(C)C)C(=O)c2cccc(c2)-c2cccc(c2)C1=O` (racemic), for which the Activity is 50.1% in data set [1]; 46.2% in data set [2]; 56.1% in data set [3]; 22% in data set [4]; 23.6% in data set [7]; 37.8% in data set [5]. For the same compound, in data set [6], the inhibition at 48 h, 10 µM was 33%.
In the case of `CCCCCCCCCCNC(=O)C(c1ccoc1)N1CCCCN(CC(=O)NC(C)(C)C)C(=O)c2cccc(c2)-c2cccc(c2)C1=O` (racemic), the Activity amounted to 27.5% in data set [1]; 35% in data set [2]; 36.6% in data set [3]; 38.5% in data set [4]; 29.5% in data set [7]; 18.8% in data set [5]. For the same compound, in data set [6], the inhibition at 48 h, 10 µM was determined as 22.8%.
Take `CCCCCCCCCCCCNC(=O)C(c1cc(C)ccc1F)N1CCCCN(CC(=O)NC(C)(C)C)C(=O)c2cccc(c2)-c2cccc(c2)C1=O` (racemic): the Activity in data set [1] was determined as 15.7%; in data set [2], 9.5%; in data set [3], 29%; in data set [4], 31.7%; in data set [7], 15.2%; in data set [5], 3.1%. In data set [6], the inhibition at 48 h, 10 µM was 20.2%.
As to `CCCCCCCCCCCCNC(=O)C(c1ccc(O)cc1OC)N1CCCCN(CC(=O)NC(C)(C)C)C(=O)c2cccc(c2)-c2cccc(c2)C1=O` (racemic), the Activity in data set [1] is 48.5%; in data set [2] it was 37.6%; in data set [3], 60.9%; in data set [4], 27.3%; in data set [7], 38.9%; in data set [5], 45.1%. The inhibition at 48 h, 10 µM in data set [6] was determined as 26.1%.
As to `CCCCCCNC(=O)CN1CCCCN(CC(=O)NC(C)(C)C)C(=O)c2cccc(c2)-c2cccc(c2)C1=O`, the Activity in data set [1] amounted to 58.5%; in data set [2] it was 19.3%; in data set [3], 60.1%; in data set [4] it was 32.4%; in data set [5], 74.9%. For the same compound, the inhibition at 48 h, 10 µM in data set [6] turned out to be 40%.
Consider `CCCCCCCCCCCCNC(=O)C(c1ccc([N+](=O)[O-])cc1)N1CCCCN(CC(=O)NC(C)(C)C)C(=O)c2cccc(c2)-c2cccc(c2)C1=O` (racemic), for which the Activity is 34.5% in data set [1]; 17.1% in data set [2]; 29% in data set [3]; 22.8% in data set [4]; 31.2% in data set [7]; 45.2% in data set [5]. Moreover, the inhibition at 48 h, 10 µM in data set [6] came to 17.5%.
For `CCCCCCCCCCCCNC(=O)C(c1ccc(OC)cc1C)N1CCCCN(CC(=O)NC(C)(C)C)C(=O)c2cccc(c2)-c2cccc(c2)C1=O` (racemic), the Activity in data set [1] turned out to be 23.1%; in data set [3], 5.2%; in data set [4], 28%; in data set [5] it was 29%. The inhibition at 48 h, 10 µM in data set [6] turned out to be 31.3%.
With `CCCCCCCCCCCCNC(=O)C(c1ccc(C)cc1)N1CCCCN(CC(=O)NC(C)(C)C)C(=O)c2cccc(c2)-c2cccc(c2)C1=O` (racemic), the Activity in data set [1] was 48%; in data set [2], 21.1%; in data set [3], 40.7%; in data set [4], 19.9%; in data set [7] it was 4.8%; in data set [5] it was 32.4%. Further, the inhibition at 48 h, 10 µM in data set [6] came out at 34.8%.
Consider `CCCCCCCCCCCCNC(=O)C(c1ccoc1)N1CCCCN(CC(=O)NC(C)(C)C)C(=O)c2cccc(c2)-c2cccc(c2)C1=O` (racemic), for which the Activity was 27.5% in data set [1]; 48.9% in data set [2]; 48.8% in data set [3]; 34.3% in data set [4]; 66.1% in data set [7]; 32.3% in data set [5]. Further, the inhibition at 48 h, 10 µM in data set [6] turned out to be 27.5%.
For `CCCCCCCCCCCCNC(=O)C(c1ccc(Cl)cc1)N1CCCCN(CC(=O)NC(C)(C)C)C(=O)c2cccc(c2)-c2cccc(c2)C1=O` (racemic), the Activity was 71.3% in data set [1]; 14.4% in data set [2]; 42.6% in data set [3]; 24.3% in data set [4]; 72.2% in data set [7]; 52.3% in data set [5]. For the same compound, the inhibition at 48 h, 10 µM in data set [6] turned out to be 42.2%.
Consider `CCCCCCCCCCNC(=O)CN1CCCCN(CC(=O)NC(C)(C)C)C(=O)c2cccc(c2)-c2ccc(O)c(c2)C1=O`, for which the Activity came to 49.3% in data set [1]; 19.5% in data set [2]; 55.3% in data set [3]; 28.6% in data set [4]; 27.1% in data set [7]; 27.7% in data set [5]. In addition, the inhibition at 48 h, 10 µM in data set [6] was 41.8%.
For `CCCCCCCCCCCCNC(=O)C(c1ccc(F)cc1)N1CCCCN(CC(=O)NC(C)(C)C)C(=O)c2cccc(c2)-c2cccc(c2)C1=O` (racemic), the Activity in data set [1] came to 76.9%; in data set [2] it was 21.3%; in data set [3], 59.6%; in data set [4] it was 42.9%; in data set [7], 41.5%; in data set [5] it was 18.8%. In addition, in data set [6], the inhibition at 48 h, 10 µM worked out at 40.8%.
Consider `CCCCCCCCCCCCNC(=O)C(c1ccccc1)N1CCCCN(CC(=O)NC(C)(C)C)C(=O)c2cccc(c2)-c2cccc(c2)C1=O` (racemic), for which the Activity in data set [2] is reported as 32.6%; in data set [3], 41.3%; in data set [4] it was 27.7%; in data set [7] it was 29.5%; in data set [5] it was 28.5%. Further, in data set [6], the inhibition at 48 h, 10 µM was found to be 21.1%.

Source of the values: ChEMBL document CHEMBL5143595, “Expanding the structure-activity relationship of cytotoxic diphenyl macrocycles” (Bioorg Med Chem Lett, 2022).
